Where “and” joins values, the source holds several entries; their conditions need not be identical. Equal values may be shown once. Where a name gives a salt, the structure may show the parent alone.
Tested on: Swiss mice CD1
Assay: forced swim test, Alverine and imipramine administered intraperitoneally to mice (Example 3, first test)
Assay type: in vivo
Design: key to Dunnett test vs control group: * indicates a significant difference for p < 0.05 (Dunnett test); ns indicates an insignificant result
Settings: for immobility time, individual animals / immobility time, Mean: 30 minutes prior to the test; for immobility time, Mean: n = 10
Experimental: These are Swiss mice CD1 (CD-1® (ICR) IGS (Charles River France) weighing between 25 and 35 g. […] They are placed 15 to 20 per cage, over an acclimatising period of at least 5 days prior to the tests. They are identified by marking on the fur. […] The mice were divided into two test comprising six groups of 10 mice each. For the first test: The first group is the control group: it is treated only by excipient. The second group is treated with imipramine at a dose of 3 mg/kg The third group is treated with Alverine at a dose of 3 mg/kg The fourth group is treated with Alverine at a dose of 3 mg/kg and imipramine at a dose of 3 mg/kg The fifth group is treated with imipramine at a dose of 10 mg/kg […] The doses are expressed in terms of free active substances. The test substances are prepared extemporaneously in a saline solution. The treatments are co-administered 30 minutes prior to the test in a coded and random order intraperitoneally with a volume of 10 ml/kg (5 ml/kg for each administration). Thirty minutes following administration the six groups of mice are subjected to the forced swim test, in a vertical Plexiglas cylinder (height 24 cm, diameter 9 cm) containing water (height 6 cm, temperature 18-22° C.). The total duration of immobility is measured over the last four minutes of the test, six minutes in total. A mouse is deemed immobile when it ceases struggling and floats in the water without movements superfluous to those allowing it to keep its head above water. A drop in immobility time is the reflection of an antidepressant effect. The forced swim test is a pre-clinical behavioural model, which has good predictive validity and is widely employed for determining the efficacy of antidepressant medications (Borsini and Meli, 1988). The results are expressed in total duration of immobility in seconds and as a percentage of variation of the total duration of immobility calculated from the average value of the control group. The statistical significance between two treated groups is determined by using a Student test (P<0.05) The data are analysed using <<SigmaStat>> software.

[1] = Alverine 3 mg/kg intraperitoneally
[2] = Alverine 10 mg/kg intraperitoneally

CCN(CCCc1ccccc1)CCCc1ccccc1 [Alverine citrate, N-ethyl-3,3′-diphenyldipropylamine]
% of variation of immobility time vs control group [1]: −30% | Dunnett test vs control group [1]: ns | immobility time, individual animals [1]: 108 s and 134 s and 113 s and 65 s and 85 s and 73 s and 79 s and 125 s and 95 s and 140 s | immobility time, Mean [1]: 101.7 s | % of variation of immobility time vs control group [2]: −70% | Dunnett test vs control group [2]: * (* indicates a significant difference for p < 0.05 (Dunnett test)) | immobility time, individual animals [2]: 28 s and 10 s and 1 s and 74 s and 22 s and 70 s and 69 s and 67 s and 42 s and 57 s | immobility time, Mean [2]: 44.0 s | decrease in the duration of immobilisation as compared to the control group (in words) (tested alone at 3 mg/kg intraperitoneally): statistically insignificant decrease

— patent US20050065218A1, “Utilization of alverine, alone or in combination with tricyclic antidepressant or a specific serotonin reuptake inhibitor for the treatment of depression” (priority 2003, published 2005)
